According to ChEMBL document CHEMBL6096666, “Design, synthesis and biological evaluation of alginate oligosaccharide derivatives” (Bioorg Med Chem Lett, 2025):
Activity calls are given as the source filed them. No cut-off for these calls is given here.

Assays:
HK-2 [1] = assay: Anti-inflammatory activity against H/R induced damage in human HK-2 cells assessed as inhibition of TLR4 protein expression pretreated with compound followed by hypoxic reoxygenation induction; format: functional, cell-based
HK-2 [2] = assay: Anti-inflammatory activity against H/R induced damage in human HK-2 cells assessed as inhibition of MyD88 protein expression pretreated with compound followed by hypoxic reoxygenation induction; format: functional, cell-based
HK-2 [3] = assay: Anti-inflammatory activity against H/R induced damage in human HK-2 cells assessed as inhibition of p-NFkappaB protein expression pretreated with compound followed by hypoxic reoxygenation induction; format: functional, cell-based
HK-2 [4] = assay: Anti-inflammatory activity against H/R induced damage in human HK-2 cells assessed as inhibition of IL-1beta protein expression pretreated with compound followed by hypoxic reoxygenation induction; format: functional, cell-based
Rattus norvegicus = species on record: Rattus norvegicus; assay: Protection against kidney ischemia-reperfusion injury in rat model assessed as decrease in blood creatinine level; format: functional, organism-based

| Structure (SMILES) | Activity (HK-2 [1]) | Activity (HK-2 [2]) | Activity (HK-2 [3]) | Activity (HK-2 [4]) | Activity (Rattus norvegicus) |
| --- | --- | --- | --- | --- | --- |
| O=C(O)[C@@H]1C[C@@H](O)[C@@H](O)[C@H](O[C@@H]2[C@@H](O)[C@@H](O)[C@H](O[C@@H]3[C@@H](O)[C@@H](O)[C@H](O[C@@H]4[C@@H](O)[C@@H](O)[C@@H](O)O[C@@H]4C(=O)O)O[C@@H]3C(=O)O)O[C@@H]2C(=O)O)O1 | Active | – | – | – | – |
| O=C(O)[C@@H]1C[C@@H](O)[C@@H](O)[C@H](O[C@@H]2[C@@H](O)[C@@H](O)[C@H](O[C@H]([C@@H](O)[C@@H](O)C(=O)O)[C@H](O)C(=O)O)O[C@@H]2C(=O)O)O1 | Active | Active | Active | Active | – |
| O=C(O)[C@@H]1C[C@@H](O)[C@@H](O)[C@H](O[C@@H]2[C@@H](O)[C@@H](O)[C@H](O[C@@H]3[C@@H](O)[C@@H](O)[C@@H](O)O[C@@H]3C(=O)O)O[C@@H]2C(=O)O)O1 | – | – | – | Active | Active |
| O=C(O)[C@@H]1C[C@@H](O)[C@@H](O)[C@H](O[C@@H]2[C@@H](O)[C@@H](O)[C@@H](O)O[C@@H]2C(=O)O)O1 | Active | – | – | – | Active |
